Data from patent US9975878B2, “Substituted triazine BMI-1 inhibitors” (PTC Therapeutics, Inc., priority 2013, dated 2018).

What follows are molecules tested on Bmi-1 protein (assay: Sandwich ELISA Assay: Bmi-1 protein level in HT-1080 cells treated with test compounds).
Format: cell-based
Procedure, shortened: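 HT-1080 cells exposed to compounds (final DMSO 0.5%) for 40-48 h at 37° C, 5% CO2, then lysed. Bmi-1 quantified by sandwich ELISA (mouse anti-Bmi-1 capture, rabbit anti-Bmi-1 detection, HRP anti-rabbit, TMB), read at OD450 with OD570 reference, against recombinant GST-Bmi-1 standard curve (0-8000 pg/mL).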

SMILES | EC50 [nM]
CCc1nn2ccccc2c1-c1nc(N)nc(Nc2ccc(C(F)(F)F)cc2)n1 [Cpd 128, 6-(2-ethylpyrazolo[1,5-a]pyridin-3-yl)-N-[4-(trifluoromethyl)phenyl]-1,3,5-triazine-2,4-diamine] | 100 to 3000
CCc1nn2ccccc2c1-c1nc(N)nc(Nc2ccc(OC(F)F)cc2)n1 [Cpd 129, N-[4-(difluoromethoxy)phenyl]-6-(2-ethylpyrazolo[1,5-a]pyridin-3-yl)-1,3,5-triazine-2,4-diamine] | 100 to 3000
Cc1nc2ccc(F)cc2n1-c1nncc(Nc2ccc(C(F)(F)F)cc2)n1 [Cpd 130, 3-(6-fluoro-2-methyl-1H-benzimidazol-1-yl)-N-[4-(trifluoromethyl)phenyl]-1,2,4-triazin-5-amine] | 100 to 3000
CCc1nc2ccc(F)cc2n1-c1nncc(Nc2ccc(C(F)(F)F)cc2)n1 [Cpd 131, 3-(2-ethyl-6-fluoro-1H-benzimidazol-1-yl)-N-[4-(trifluoromethyl)phenyl]-1,2,4-triazin-5-amine] | 100 to 3000
Fc1ccc2nc(C3CC3)n(-c3cnnc(Nc4ccc(C(F)(F)F)cc4)n3)c2c1 [Cpd 134, 5-(2-cyclopropyl-6-fluoro-1H-benzimidazol-1-yl)-N-[4-(trifluoromethyl)phenyl]-1,2,4-triazin-3-amine] | 100 to 3000
Cc1nc2ccccc2n1-c1nc(N)nc(Nc2ccc(N3CCOCC3)cc2)n1 [Cpd 135, 6-(2-methyl-1H-benzimidazol-1-yl)-N-[4-(morpholin-4-yl)phenyl]-1,3,5-triazine-2,4-diamine] | 100 to 3000
CCc1nc2ccc(F)cc2n1-c1cnnc(Nc2ccc(OC(F)F)cc2)n1 [Cpd 137, N-[4-(difluoromethoxy)phenyl]-5-(2-ethyl-6-fluoro-1H-benzimidazol-1-yl)-1,2,4-triazin-3-amine] | 100 to 3000
Fc1ccc2nc(C3CC3)n(-c3cnnc(Nc4ccc(OC(F)F)cc4)n3)c2c1 [Cpd 138, 5-(2-cyclopropyl-6-fluoro-1H-benzimidazol-1-yl)-N-[4-(difluoromethoxy)phenyl]-1,2,4-triazin-3-amine] | 100 to 3000
CCc1nc2ccccc2n1-c1nc(Nc2ccc(OC(F)F)cc2)c[n+]([O-])n1 [Cpd 140, N-[4-(difluoromethoxy)phenyl]-3-(2-ethyl-1H-benzimidazol-1-yl)-1,2,4-triazin-5-amine 1-oxide] | 100 to 3000
CCc1nc2ccccc2n1-c1nnc(N)c(Nc2ccc(C(F)(F)F)cc2)n1 [Cpd 142, 3-(2-ethyl-1H-benzimidazol-1-yl)-N^5-[4-(trifluoromethyl)phenyl]-1,2,4-triazine-5,6-diamine] | 100 to 3000
Cc1nc2ccccc2n1-c1nnc(N)c(Nc2ccc(C(F)(F)F)cc2)n1 [Cpd 143, 3-(2-methyl-1H-benzimidazol-1-yl)-N^5-[4-(trifluoromethyl)phenyl]-1,2,4-triazine-5,6-diamine] | 100 to 3000
Cc1cccc(Nc2nc(N)nc(-n3c(C)nc4ccccc43)n2)c1 [Cpd 149, 6-(2-methyl-1H-benzimidazol-1-yl)-N-(3-methylphenyl)-1,3,5-triazine-2,4-diamine] | 100 to 3000
Cc1nc2ccccc2n1-c1nc(N)nc(Nc2ccc(C#N)cc2)n1 [Cpd 151, 4-{[4-amino-6-(2-methyl-1H-benzimidazol-1-yl)-1,3,5-triazin-2-yl]amino}benzonitrile] | 100 to 3000
Cc1nc2ncc(Cl)cc2n1-c1nc(N)nc(Nc2ccc(OC(F)(F)F)cc2)n1 [Cpd 152, 6-(6-chloro-2-methyl-1H-imidazo[4,5-b]pyridin-1-yl)-N-[4-(trifluoromethoxy)phenyl]-1,3,5-triazine-2,4-diamine] | 100 to 3000
COc1cccc(Nc2nc(N)nc(-n3c(C4CC4)nc4ccccc43)n2)c1 [Cpd 154, 6-(2-cyclopropyl-1H-benzimidazol-1-yl)-N-(3-methoxyphenyl)-1,3,5-triazine-2,4-diamine] | 100 to 3000
Cc1cccc(Nc2nc(N)nc(-n3c(C4CC4)nc4ccccc43)n2)c1 [Cpd 156, 6-(2-cyclopropyl-1H-benzimidazol-1-yl)-N-(3-methylphenyl)-1,3,5-triazine-2,4-diamine] | 100 to 3000
N#Cc1ccc(Nc2nc(N)nc(-n3c(C4CC4)nc4ccccc43)n2)cc1 [Cpd 158, 4-{[4-amino-6-(2-cyclopropyl-1H-benzimidazol-1-yl)-1,3,5-triazin-2-yl]amino}benzonitrile] | 100 to 3000

Results, then the molecule that gave them:

EC50 [nM] | SMILES
100 to 3000 | CSc1nc2ccccc2n1-c1nc(N)nc(Nc2ccc(OC(F)F)cc2)n1 [Cpd 121, N-[4-(difluoromethoxy)phenyl]-6-[2-(methylsulfanyl)-1H-benzimidazol-1-yl]-1,3,5-triazine-2,4-diamine]
100 to 3000 | N#CCc1nc2ccccc2n1-c1nc(N)nc(Nc2ccc(OC(F)F)c(F)c2)n1 [Cpd 122, [1-(4-amino-6-{[4-(difluoromethoxy)-3-fluorophenyl]amino}-1,3,5-triazin-2-yl)-1H-benzimidazol-2-yl]acetonitrile]
100 to 3000 | Cc1nn2ccccc2c1-c1nc(N)nc(Nc2ccc(OC(F)F)cc2)n1 [Cpd 123, N-[4-(difluoromethoxy)phenyl]-6-(2-methylpyrazolo[1,5-a]pyridin-3-yl)-1,3,5-triazine-2,4-diamine]
100 to 3000 | CCc1nc2ccccc2n1-c1cnnc(Nc2ccc(C(F)(F)F)cc2)n1 [Cpd 124, 5-(2-ethyl-1H-benzimidazol-1-yl)-N-[4-(trifluoromethyl)phenyl]-1,2,4-triazin-3-amine]
100 to 3000 | CCc1nc2ccc(F)cc2n1-c1cnnc(Nc2ccc(C(F)(F)F)cc2)n1 [Cpd 125, 5-(2-ethyl-6-fluoro-1H-benzimidazol-1-yl)-N-[4-(trifluoromethyl)phenyl]-1,2,4-triazin-3-amine]
100 to 3000 | Cc1nc2ccc(F)cc2n1-c1cnnc(Nc2ccc(C(F)(F)F)cc2)n1 [Cpd 126, 5-(6-fluoro-2-methyl-1H-benzimidazol-1-yl)-N-[4-(trifluoromethyl)phenyl]-1,2,4-triazin-3-amine]
100 to 3000 | CCCc1nc2ccccc2n1-c1nc(N)nc(Nc2ccc(C(F)(F)F)cc2)n1 [Cpd 127, 6-(2-propyl-1H-benzimidazol-1-yl)-N-[4-(trifluoromethyl)phenyl]-1,3,5-triazine-2,4-diamine]
10 to 100 | Fc1ccc2nc(C3CC3)n(-c3nncc(Nc4ccc(C(F)(F)F)cc4)n3)c2c1 [Cpd 132, 3-(2-cyclopropyl-6-fluoro-1H-benzimidazol-1-yl)-N-[4-(trifluoromethyl)phenyl]-1,2,4-triazin-5-amine]
10 to 100 | FC(F)(F)c1ccc(Nc2nncc(-n3c(C4CC4)nc4ccccc43)n2)cc1 [Cpd 133, 5-(2-cyclopropyl-1H-benzimidazol-1-yl)-N-[4-(trifluoromethyl)phenyl]-1,2,4-triazin-3-amine]
10 to 100 | Cc1nc2ccc(F)cc2n1-c1cnnc(Nc2ccc(OC(F)F)cc2)n1 [Cpd 136, N-[4-(difluoromethoxy)phenyl]-5-(6-fluoro-2-methyl-1H-benzimidazol-1-yl)-1,2,4-triazin-3-amine]
10 to 100 | CCc1nc2ccccc2n1-c1nc(Nc2ccc(C(F)(F)F)cc2)c[n+]([O-])n1 [Cpd 139, 3-(2-ethyl-1H-benzimidazol-1-yl)-N-[4-(trifluoromethyl)phenyl]-1,2,4-triazin-5-amine 1-oxide]
10 to 100 | [O-][n+]1cc(Nc2ccc(C(F)(F)F)cc2)nc(-n2c(C3CC3)nc3ccccc32)n1 [Cpd 141, 3-(2-cyclopropyl-1H-benzimidazol-1-yl)-N-[4-(trifluoromethyl)phenyl]-1,2,4-triazin-5-amine 1-oxide]
1 to 10 | COc1ccc(Nc2cnnc(-n3c(C)nc4ccccc43)n2)cc1 [Cpd 144, N-(4-methoxyphenyl)-3-(2-methyl-1H-benzimidazol-1-yl)-1,2,4-triazin-5-amine]
1 to 10 | CCc1nc2ccccc2n1-c1nncc(Nc2ccc(OC)cc2)n1 [Cpd 145, 3-(2-ethyl-1H-benzimidazol-1-yl)-N-(4-methoxyphenyl)-1,2,4-triazin-5-amine]
1 to 10 | COc1ccc(Nc2cnnc(-n3c(C4CC4)nc4ccccc43)n2)cc1 [Cpd 146, 3-(2-cyclopropyl-1H-benzimidazol-1-yl)-N-(4-methoxyphenyl)-1,2,4-triazin-5-amine]
1 to 10 | COc1ccc(Nc2nc(N)nc(-n3c(C)nc4ccccc43)n2)cc1 [Cpd 147, N-(4-methoxyphenyl)-6-(2-methyl-1H-benzimidazol-1-yl)-1,3,5-triazine-2,4-diamine]
1 to 10 | Cc1ccc(Nc2nc(N)nc(-n3c(C)nc4ccccc43)n2)cc1 [Cpd 148, 6-(2-methyl-1H-benzimidazol-1-yl)-N-(4-methylphenyl)-1,3,5-triazine-2,4-diamine]
10 to 100 | Cc1nc2ccccc2n1-c1nc(N)nc(Nc2ccc(Cl)cc2)n1 [Cpd 150, N-(4-chlorophenyl)-6-(2-methyl-1H-benzimidazol-1-yl)-1,3,5-triazine-2,4-diamine]
1 to 10 | COc1ccc(Nc2nc(N)nc(-n3c(C4CC4)nc4ccccc43)n2)cc1 [Cpd 153, 6-(2-cyclopropyl-1H-benzimidazol-1-yl)-N-(4-methoxyphenyl)-1,3,5-triazine-2,4-diamine]
1 to 10 | Cc1ccc(Nc2nc(N)nc(-n3c(C4CC4)nc4ccccc43)n2)cc1 [Cpd 155, 6-(2-cyclopropyl-1H-benzimidazol-1-yl)-N-(4-methylphenyl)-1,3,5-triazine-2,4-diamine]
10 to 100 | Nc1nc(Nc2ccc(Cl)cc2)nc(-n2c(C3CC3)nc3ccccc32)n1 [Cpd 157, N-(4-chlorophenyl)-6-(2-cyclopropyl-1H-benzimidazol-1-yl)-1,3,5-triazine-2,4-diamine]
1 to 10 | CCc1nc2ccccc2n1-c1nc(N)nc(Nc2ccc(OC)cc2)n1 [Cpd 159, 6-(2-ethyl-1H-benzimidazol-1-yl)-N-(4-methoxyphenyl)-1,3,5-triazine-2,4-diamine]
1 to 10 | CCc1nc2ccccc2n1-c1nc(N)nc(Nc2ccc(C)cc2)n1 [Cpd 160, 6-(2-ethyl-1H-benzimidazol-1-yl)-N-(4-methylphenyl)-1,3,5-triazine-2,4-diamine]
